The text below walks through data of patent US6410528B1, “Morpholino ethers” (Glaxo Wellcome S.A., priority 1998, dated 2002).

Converted amounts (≈) assume the structure as drawn.

Series [1] in a line: toxicity (LD50) in female mice. The class given is in vivo. As to conditions: iv. The method, then: (§1) The compounds of the invention are essentially non-toxic at therapeutically useful levels. For example, the compound of Example 2 when admistered orally in a system candidiasis test (C.albicans 4711E) in mice, has an ED50 value of 9.0 mg/kg. The LD50 value for the compound of example 2, in female mice is >300 mg/kg iv.

The next series has as its system C.albicans 4711E. Kind of series: system candidiasis test in mice. The class given is in vivo. Particulars: administered orally, system candidiasis test (C.albicans 4711E) in mice. On the procedure: The fungicidal activity of the compounds of formula (I) may also be determined in conventional tests in animals e.g. rats and mice. For example the lethal systems candidiasis test in mice.
as §1

The subject of the next series is C. tropicalis 2808E. The series is described as follows: in vitro antifungal screen, MIC by two-fold serial dilution. The class given is cell-based, Candida tropicalis. On the procedure:
(§2) The antifungal activity of the compounds of formula (I) may be determined using conventional in vitro and in vivo screens. Thus, the in vitro evaluation of the anti-fungal activity of compounds of the invention was performed on liquid or solid medium by the anti-fungal two-fold serial dilution technique of determining the minimum inhibitory concentration (MIC) of anti-fungal agent that inhibited development of growth after 24 to 48 hours of incubation at 37° C. In practice, a series of agar plates or broth microdilution panels containing two-fold dilutions of anti-fungal agent tested were inoculated with a standard culture of a clinically relevant pathogen, for example, Candida albicans. The agar plates or broth microdulution panels were then examined for the presence or absence of growth of the fungus and the appropriate MIC values were noted.
(§3) Compounds of formula (I) have been tested for anti fungal activity in a standard in vitro screen and the minimum inhibiting concentration (MIC; μg/ml) determined for each compound against a variety of clinically relevant pathogens.

In the next series the test system is C. parapsilosis 2372E. The description is as above. The class given is cell-based, Candida parapsilosis. On the procedure:
as §2, §3

The test system of another series is C. albicans 4711E. The series is described as above. The class given is cell-based, Candida albicans. On the procedure: as §2, §3
The subject of another series is C. albicans CL-236. The description is as above. The class given is cell-based, Candida albicans. The method, then:
as §2, §3

In series [2] the test system is C. pseudotropicalis 2371E. The description is as above. The class given is cell-based, Candida pseudotropicalis. The method, then: as §2, §3
Another series has as its system C. glabrata 522. The description is as above. The class given is cell-based, Candida glabrata. On the procedure:
as §2, §3

A further series has as its system C. glabrata 2375E. Described as above. The class given is cell-based, Candida glabrata. The method, then: as §2, §3

`C=CCN1CC(C)OC(OCC23CC4C(C)CCC4C4(C=O)CC2C=C(C(C)C)C43C(=O)O)C1` [Example 2, [1R-(1α,3aβ,4β,4aβ,7β, 7aα,8aβ)]8a-[(2R,6R)-(4-allyl-6-methyl-morpholin-2-yl)-oxymethyl]-4-formyl-4,4a,5,6,7,7a,8,8a-octahydro-7-methyl-3-(1-methylethyl)-1,4-methano-s-indacene-3a(1H)-carboxylic acid] showed an LD50 in [1] of more than 300 mg/kg. In the series with C.albicans 4711E, this compound returned an ED50 of 9.0 mg/kg. Moreover, the MIC against C. tropicalis 2808E is 0.03 µg/mL (≈ 0.0636 µM); with C. parapsilosis 2372E, more than 125 µg/mL; with C. albicans 4711E, 0.008 µg/mL (≈ 0.017 µM); in the series on C. albicans CL-236, 0.03 µg/mL (≈ 0.0636 µM); in [2] it was 0.004 µg/mL (≈ 0.00848 µM); against C. glabrata 522 it was 0.5 µg/mL (≈ 1.06 µM). The MIC against C. glabrata 2375E is 0.5 µg/mL (≈ 1.06 µM).

Broadly, the LD50 is the dose at which mortality reaches 50%. A lower LD50 goes with greater toxicity. As usually defined, the ED50 is the dose at which the effect has come halfway, by size or by number of responders. Low values mean greater potency, high ones weaker potency. As usually defined, the MIC is the lowest concentration that inhibits growth of the organism. A high value points to a need for much substance.
